Here are results for four molecules from BindingDB's records for patent US20250034159 (Oric Pharmaceuticals, 2025).

The target in experiment [1] is T1, Epidermal growth factor receptor [DEL746-750,C797S] (Homo sapiens, UniProt P00533, C797S/DEL746-750).
T1 construct: gene EGFR
Briefly: Biochemical Assay Against EGFR Exon 19 Deletion/C797S Protein (EGFR d19/CS). How it is done: (§1) In wells A1 and A24, were added 12 μL of DMSO. […] To a well in Row A were added 12 μL of each 10 mM test compound stock (100% DMSO). […] The final intermediate dilution plate contained 4×16-point compound serial dilutions in assay buffer. The DMSO concentration was 10%. The intermediate compound dilution plate was transferred to the Bravo and the “5 uL dispense into ARP.pro” protocol was run. To the black low volume assay ready plates, were added 5 μL of 40 uM Phosphosens peptide sensor/4 mM ATP working solution to each well. […] To column 24, was added 10 μL of assay buffer. The final DMSO concentration was 2.5%.

Experiment [2] concerns the target Epidermal growth factor receptor [L858R,C797S] (Human, UniProt P00533, C797S/L858R). The experiment is described as follows: Biochemical Assay Against EGFR L858R/C797S Protein (EGFR LR/CS). Here is the method:
as §1

Structures are written as SMILES.

T1 sequence (P00533 with tags, fused parts or gaps C797S/DEL746-750 limits assumed): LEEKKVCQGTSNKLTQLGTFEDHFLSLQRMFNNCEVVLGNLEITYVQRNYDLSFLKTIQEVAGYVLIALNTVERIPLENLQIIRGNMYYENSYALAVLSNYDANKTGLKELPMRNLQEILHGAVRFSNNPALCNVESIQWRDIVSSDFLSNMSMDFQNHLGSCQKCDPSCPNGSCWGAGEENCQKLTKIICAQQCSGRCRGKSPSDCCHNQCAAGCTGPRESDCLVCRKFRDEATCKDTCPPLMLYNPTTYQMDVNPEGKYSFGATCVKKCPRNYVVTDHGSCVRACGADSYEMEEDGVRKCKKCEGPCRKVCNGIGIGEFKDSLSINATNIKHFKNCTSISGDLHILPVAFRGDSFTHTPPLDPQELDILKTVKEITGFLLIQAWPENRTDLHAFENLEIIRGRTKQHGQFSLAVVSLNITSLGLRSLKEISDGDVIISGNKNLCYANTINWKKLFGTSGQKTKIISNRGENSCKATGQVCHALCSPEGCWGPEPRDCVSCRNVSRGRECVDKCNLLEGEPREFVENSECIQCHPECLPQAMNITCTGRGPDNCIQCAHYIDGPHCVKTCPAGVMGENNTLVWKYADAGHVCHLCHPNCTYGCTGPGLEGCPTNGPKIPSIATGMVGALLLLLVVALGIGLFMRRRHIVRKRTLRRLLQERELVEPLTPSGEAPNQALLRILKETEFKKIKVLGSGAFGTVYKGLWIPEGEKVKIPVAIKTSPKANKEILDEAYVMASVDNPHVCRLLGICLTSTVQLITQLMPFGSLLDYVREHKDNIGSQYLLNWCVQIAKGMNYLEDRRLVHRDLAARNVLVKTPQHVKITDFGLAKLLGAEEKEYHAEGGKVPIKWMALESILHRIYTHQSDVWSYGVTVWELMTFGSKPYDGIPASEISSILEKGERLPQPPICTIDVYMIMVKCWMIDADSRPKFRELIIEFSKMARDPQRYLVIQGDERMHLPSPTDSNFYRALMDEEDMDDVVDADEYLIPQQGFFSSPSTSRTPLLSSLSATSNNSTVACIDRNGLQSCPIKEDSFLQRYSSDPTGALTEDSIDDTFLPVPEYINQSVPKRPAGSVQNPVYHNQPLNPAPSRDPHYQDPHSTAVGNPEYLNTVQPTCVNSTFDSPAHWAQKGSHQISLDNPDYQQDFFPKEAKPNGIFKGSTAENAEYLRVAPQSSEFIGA
Sequence of Epidermal growth factor receptor [L858R,C797S] (P00533 25-1210 C797S/L858R limits assumed): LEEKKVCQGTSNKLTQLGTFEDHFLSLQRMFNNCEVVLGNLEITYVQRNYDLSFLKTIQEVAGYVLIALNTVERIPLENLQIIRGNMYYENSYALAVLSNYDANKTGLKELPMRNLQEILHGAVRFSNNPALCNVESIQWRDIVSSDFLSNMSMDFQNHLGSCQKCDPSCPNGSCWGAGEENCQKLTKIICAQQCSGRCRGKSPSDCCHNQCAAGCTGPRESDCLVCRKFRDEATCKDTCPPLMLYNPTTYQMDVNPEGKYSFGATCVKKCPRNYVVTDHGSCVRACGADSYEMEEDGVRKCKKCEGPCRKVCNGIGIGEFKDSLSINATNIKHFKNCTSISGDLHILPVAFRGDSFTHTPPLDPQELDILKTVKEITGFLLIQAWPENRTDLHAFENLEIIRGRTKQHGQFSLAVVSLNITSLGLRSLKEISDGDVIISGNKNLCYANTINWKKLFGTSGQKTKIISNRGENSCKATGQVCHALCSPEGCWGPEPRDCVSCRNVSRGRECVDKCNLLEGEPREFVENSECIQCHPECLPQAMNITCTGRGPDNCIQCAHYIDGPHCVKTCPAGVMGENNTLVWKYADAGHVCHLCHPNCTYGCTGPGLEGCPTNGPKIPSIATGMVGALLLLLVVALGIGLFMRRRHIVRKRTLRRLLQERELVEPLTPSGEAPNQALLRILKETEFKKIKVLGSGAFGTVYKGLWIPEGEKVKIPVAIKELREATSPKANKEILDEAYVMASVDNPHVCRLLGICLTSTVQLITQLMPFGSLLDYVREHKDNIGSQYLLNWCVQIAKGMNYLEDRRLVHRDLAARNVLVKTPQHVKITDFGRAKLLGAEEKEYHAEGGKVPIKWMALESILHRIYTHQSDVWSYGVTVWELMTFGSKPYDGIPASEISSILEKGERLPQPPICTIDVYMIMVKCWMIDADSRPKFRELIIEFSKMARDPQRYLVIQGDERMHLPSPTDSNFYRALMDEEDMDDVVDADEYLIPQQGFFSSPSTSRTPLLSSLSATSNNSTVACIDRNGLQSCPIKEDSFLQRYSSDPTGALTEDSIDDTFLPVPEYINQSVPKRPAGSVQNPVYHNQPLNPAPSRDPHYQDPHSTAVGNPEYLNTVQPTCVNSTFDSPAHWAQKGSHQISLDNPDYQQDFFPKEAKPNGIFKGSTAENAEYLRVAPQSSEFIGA

As usually defined, the IC50 is the midpoint of a concentration-inhibition curve. Higher therefore signals weaker potency in that assay. With `Fc1ccc(-c2nn(CCOC(F)(F)F)cc2-c2ncnc3oc(-c4ccccc4)cc23)cc1` [US20250034159, Example 144], the IC50 in experiment [1] is 2.41 nM. For `Fc1ccc(-c2nn(CCC(F)F)cc2-c2ccnc3oc(-c4ccccc4)cc23)cc1` [US20250034159, Example 157], it took 0.57 nM to reach half-maximal inhibition in experiment [1] (IC50). Against the preceding molecule, the IC50 is about 4.2-fold lower. On to `O=S1(=O)CCC(n2cc(-c3ncnc4oc(-c5ccccc5)cc34)c(-c3ccc(F)cc3)n2)CC1` [US20250034159, Example 83], for which the IC50 came out at 6.32 nM in experiment [2] and 8.54 nM in experiment [1]. In the case of `O=S1(=O)CC(n2cc(-c3ncnc4oc(C5=CCN(S(=O)(=O)C6CC6)CC5)cc34)c(-c3ccc(F)cc3)n2)C1` [US20250034159, Example 177], the IC50 in experiment [1] was 0.42 nM. This counts as sub-nanomolar.
